Measured values as given in patent publication US8637664B2, “Alkyl 4- [4- (5-oxo-2,3,5, 11a-tetrahydo-5H-pyrrolo [2, 1-c] [1,4] benzodiazepine-8-yloxy)-butyrylamino]-1H-pyrrole-2-carboxylate derivatives and related compounds for the treatment of a proliferative disease” (Spirogen SARL, priority 2005, dated 2014).

What was measured:
human c-myc oncogene = conditions: read-out: IC50 to arrest PCR of the c-myc gene; cited from earlier work
HIV-1 LTR = conditions: read-out: IC50 to arrest PCR of the HIV gene; cited from earlier work
[1] = test system: NF-Y binding at ICB1 of Topoisomerase IIα promoter; experiment: NF-Y gel shift assay (EMSA) at ICB1
[2] = test system: 170 bp sequence of the human Topo-IIa promoter; experiment: DNase I footprinting on Topo-IIa promoter (ICB1, ICB2 sites); format: binding; conditions: for Concentration at which DNA binding is observed, ICB1: ICB1 site; for Concentration at which DNA binding is observed, ICB2: ICB2 site
Description: In a similar manner to Example 4, the affinity and sequence selectivity of certain compounds of examples 1 and 2 was evaluated by standard DNA footprinting on a 170 bp sequence of the human Topo-IIa promoter, in accordance with the technique described in Martin, C., et al.
Selected results are shown in FIG. 9, wherein the concentrations of the lanes were 0, 1.6, 8, 40, 200, 1000, 5000 and 25000 nM in each case.
The footprinting results allowed the identification of compounds that could potentially disrupt transcription factor binding at the ICB1 and ICB2 sites. […] These compounds are detailed below in table 3, showing the concentrations (μM) at which the PBD-heterocycle conjugates bind at ICB1 and ICB2.

[3] = test system: NF-Y binding at ICB2 of Topoisomerase IIα promoter; experiment: NF-Y gel shift assay (EMSA) at ICB2
calf thymus DNA (CT-DNA) = experiment: DNA thermal denaturation (melting) studies; format: binding; conditions: CT-DNA 100 μM DNAp, compound 20 μM, 37 °C; for Induced ΔTm after incubation 0 hours: pH 7.00, 0 hours; for Induced ΔTm after incubation 4 hours: pH 7.00, 4 hours; for Induced ΔTm after incubation 18 hours: pH 7.00, 18 hours; for Induced ΔTm after incubation 72 hours: pH 7.00, 72 hours
Description: The PBD agents were subjected to DNA thermal melting (denaturation) studies (Gregson, S. J., et al., Journal of Medicinal Chemistry, 44(5), 737-748 (2001); Jones, G. B., et al., Anti-Cancer Drug Design, 5(3), 249-264 (1990); McConnaughie, A. W. and; Jenkins, T. C. Journal of Medicinal Chemistry, 38(18), 3488-3501 (1995)) using calf thymus DNA (CT-DNA, type-1, highly polymerized sodium salt; 42% G+C [Sigma]) at a fixed 100 μM (DNAp=50 μM bp) concentration, determined using an extinction coefficient of 6600 (M phosphate)^−1 cm^−1 at 260 nm (Manzini, G., et al., Nucleic Acids Research, 11(24), 8861-8876 (1983)). Solutions were prepared in pH 7.00±0.01 aqueous buffer containing 10 mM NaH2PO4/Na2HPO4 and 1 mM EDTA. Working solutions containing CT-DNA and the test compound (20 μM) were incubated at 37.0±0.1° C. for 0 to 18 hours using an external water bath. Samples were monitored at 260 nm using a Varian-Cary 400 Bio spectrophotometer fitted with a Peltier heating accessory. Heating was applied at a rate of 1° C./min in the 45 to 98° C. temperature range, with optical and temperature data sampling at 200 ms intervals. A separate experiment was carried out using buffer alone, and this baseline was subtracted from each DNA melting curve before data treatment. Optical data were imported into the Origin 5 program (MicroCal Inc., Northampton, Mass.) for analysis. DNA helix→coil transition temperatures (Tm) were determined at the midpoint of the normalized melting profiles using a published analytical procedure (Jones, G. B., et al., Anti-Cancer Drug Design, 5(3), 249-264 (1990)). Results are given in table 1 as the mean±standard deviation from at least three determinations. Ligand-induced alterations in DNA melting behaviour (ΔTm) are given by ΔTm=Tm(DNA+ligand)−Tm(DNA), where the Tm value determined for free CT-DNA is 67.82±0.06° C. (averaged from >90 runs). All PBD compounds were dissolved in HPLC-grade MeOH to give working solutions containing ≦0.6% v/v MeOH; Tm results were corrected for the effects of MeOH co-solvent by using a linear correction term.
The above method was also carried out on the compounds of example 2, with all compounds being incubated for up to 72 hours.

[4] = target: 262 bp DNA fragment (MS2F or MS2R) of MS2 plasmid; experiment: DNase I footprinting on MS2 DNA fragment; format: binding; conditions: read-out: DNase IC50 (apparent binding affinity; 50% inhibition of DNase I-mediated cleavage); estimated by eye; site 5′-62CAATACACA70-3′
Description: The sequence selectivity of the six PBD-pyrrole conjugates (21, 23, 25, 27, 29) was evaluated by standard DNA footprinting on a fragment of MS2 as follows, in accordance with the technique described in Martin, C., et al., (Martin, C., et al., Biochemistry, 44(11), 4135-4147 (2005))
Forward (5′-[…]-3′) or reverse (5′-[…]-3′) primer was 5′-end labelled with ^32P by T4 polynucleotide kinase. Labelling mixture contained primer (5 pmol; Sigma-Genosys), 10× kinase buffer (1 μl; Promega), (γ-^32P)-ATP (2μ of 10 μCi/μl, 6000 Ci/mmol; Perkin Elmer Life Sciences), and T4 polynucleotide kinase (10 U; Promega) in a 10 μl final volume. Labelling mix was incubated at 37° C. for 30 minutes followed by inactivation of the kinase at 70° C. for 10 minutes. A 262 bp DNA fragment (MS2F or MS2R) was amplified from the MS2 plasmid using PCR with either labelled forward or reverse primer and the unlabelled primer as required. Reactions were comprised of labelled primer mix (10 μl), 10×PCR buffer (5 μl; Sigma), dNTPs (5 μl; 2.5 mM each of A, C, G and T, Amersham Pharmacia), unlabelled primer as required ([…]), MS2 plasmid template DNA (10 ng) and Taq DNA polymerase (5 U; Sigma) in a 50 μl final volume. Radiolabelled 262-mer was purified by non-denaturing polyacrylamide gel electrophoresis, elution, filtration and EtOH precipitation and was resuspended in a solution of Tris-HCl (10 mM) pH 7.4/NaCl (10 mM) to yield an activity of 200 counts per second per 5 μl when held up, in a pipette tip, to a capped Morgan series 900 mini-monitor.
For DNase I footprinting radiolabelled 262-mer (2 μl) was incubated overnight (16-18 h) with drug solution (388 μl) or in an aqueous buffer [HEPES (20 mM) pH 7.9, NaCl (50 mM), MgCl2 (1 mM), DTT (5 mM), 10% glycerol] in control reactions. Enzymatic cleavage was initiated by addition of DNase I solution (10 μl of 0.05 U/ml; Sigma) in aqueous NaCl (200 mM), MgCl2 (20 mM) and MnCl2 (20 mM) and halted with stop solution [40 μl of NaCl (2.25 M), EDTA (150 mM) pH 8.0, 0.57 μg/μl glycogen (0.57 μg/μl; Roche), poly(dl-dC).poly(dl-dC) DNA (19.3 ng/μl; Amersham Pharmacia)]. From this mixture, digested DNA fragments were prepared for electrophoresis following the protocol of Trauger & Dervan, and were loaded on to a preheated 8% denaturing polyacrylamide gel. Electrophoresis in 1×TBE buffer was allowed to proceed for 100 min at 70 W (1600-2000 V). The gel was the fixed in acetic acid (10% v/v) and methanol (10% v/v) for 15 minutes followed by being blotted onto Whatman 3 mM paper and vacuum-dried at 80° C. for 45 minutes.
Dried gels were stored at room temperature in phosphor storage screens (Molecular Dynamics) for a minimum period of 12 h. Data were collected from exposed screens using a Molecular Dynamics 425E Phosphorlmager and transferred to ImageQuant v1.2 software (Molecular Dynamics) for analysis. Data were expressed as the differential cleavage between control and sample lanes. Peaks were integrated and differential cleavage calculated as ln(fd)−ln(fc); (fd is the fractional cleavage at any particular bond in the presence of drug and fc is the fractional cleavage of the same bond in the control). Maxam-Gilbert G+A marker lanes were prepared in the usual fashion.
The vast majority of footprint sites are common features in the binding profiles of all six conjugates, with only a small number of sites being footprinted by a subset of the family. Even more unexpectedly, no site is footprinted by only one molecule (in fact, the fewest number of conjugates that bind at any single site is four). The differential cleavage plot provides footprinting profiles at a supramaximal concentration colour-coded for each conjugate which illustrates a striking degree of overlap. Although there is no conspicuous change in footprinting patterns as the number of pyrroles units in each conjugate increases, there are changes in two other features, namely, the apparent binding affinity and the width of the footprinted site. […]

[5] = test system: K562 human chronic myeloid leukaemia cells; experiment: In vitro cytotoxicity, MTT assay; format: cell-based; conditions: K562, 1 hour drug exposure, MTT after 4 days
Description: K562 human chronic myeloid leukaemia cells were maintained in RPM1 1640 medium supplemented with 10% fetal calf serum and 2 mM glutamine at 37° C. in a humidified atmosphere containing 5% CO2 and were incubated with a specified dose of drug for 1 hour at 37° C. in the dark. The incubation was terminated by centrifugation (5 min, 300 g) and the cells were washed once with drug-free medium. Following the appropriate drug treatment, the cells were transferred to 96-well microtiter plates (10^4 cells per well, 8 wells per sample). Plates were then kept in the dark at 37° C. in a humidified atmosphere containing 5% CO2. The assay is based on the ability of viable cells to reduce a yellow soluble tetrazolium salt, 3-(4,5-dimethylthiazol-2-yl)-2,5-diphenyl-2H-tetrazolium bromide (MTT, Aldrich-Sigma), to an insoluble purple formazan precipitate. Following incubation of the plates for 4 days (to allow control cells to increase in number by approximately 10 fold), 20 μL of MTT solution (5 mg/mL in phosphate-buffered saline) was added to each well and the plates further incubated for 5 hours. The plates were then centrifuged for 5 minutes at 300 g and the bulk of the medium pipetted from the cell pellet leaving 10-20 μL per well. DMSO (200 μL) was added to each well and the samples agitated to ensure complete mixing. The optical density was then read at a wavelength of 550 nm on a Titertek Multiscan ELISA plate reader, and a dose-response curve was constructed.

SMILES | IC50 (human c-myc oncogene) [µM] | IC50 (HIV-1 LTR) [µM] | Lowest concentration at which NF-Y binding inhibition was observed [1] | Concentration at which DNA binding is observed, ICB1 [2] [µM] | Concentration at which DNA binding is observed, ICB2 [2] [µM] | Lowest concentration at which NF-Y binding inhibition was observed [3] [µM] | Induced ΔTm after incubation 0 hours (calf thymus DNA (CT-DNA)) [°C] | Induced ΔTm after incubation 4 hours (calf thymus DNA (CT-DNA)) [°C] | Induced ΔTm after incubation 18 hours (calf thymus DNA (CT-DNA)) [°C] | Induced ΔTm after incubation 72 hours (calf thymus DNA (CT-DNA)) [°C] | IC50 [4] [µM] | IC50 [5] [µM]
Cn1cc(NC(=O)c2cc(NC(=O)c3cc(NC=O)cn3C)cn2C)cc1C(=O)NCCC(=N)N [distamycin A] | 25 | 50 | – | – | – | – | – | – | – | – | – | –
COC(=O)c1cc(NC(=O)c2cc(NC(=O)c3nc(NC(=O)CCCOc4cc5c(cc4OC)C(=O)N4CCC[C@H]4C=N5)cn3C)cn2C)cn1C [Compound 67] | – | – | 50 µM | 5 | 1 | 5 | 19.1 | 19.8 | 21.1 | 21.6 | – | –
COC(=O)c1cc(NC(=O)c2cc(NC(=O)c3csc(NC(=O)CCCOc4cc5c(cc4OC)C(=O)N4CCC[C@H]4C=N5)n3)cn2C)cn1C [Compound 69] | – | – | 50 µM | 5 | 5 | 10 | 16.4 | 17.4 | 18.2 | 18.5 | – | –
CCOC(=O)c1nc(NC(=O)c2nc(NC(=O)c3cc(NC(=O)CCCOc4cc5c(cc4OC)C(=O)N4CCC[C@H]4C=N5)cn3C)cn2C)cn1C [Compound 91] | – | – | did not inhibit NF-Y binding | 5 | 5 | 50 | 16.8 | 17.6 | 18.7 | 18.8 | – | –
COC(=O)c1cc(NC(=O)c2cc(NC(=O)c3cc(NC(=O)CCCOc4cc5c(cc4OC)C(=O)N4CCC[C@H]4C=N5)cn3C)cn2C)cn1C [Compound 25, (11aS) Methyl 4-{[4-({4-[4-(7-Methoxy-6-oxo-2,3,5,11a-tetrahydro-5H-pyrrolo[2,1-c][1,4]benzodiazepine-8-yloxy)-butyrylamino]-1-methyl-1H-pyrrole-2-carbonyl]-amino)-1-methyl-1H-pyrrole-2-carbonyl]-amino}-1-methyl-1H-pyrrole-2-carboxylate] | – | – | – | – | – | – | 17.3 | 19.6 | 21.2 | – | 0.03 to 0.1 | 0.041
